{"source": "patent US9851354B2", "about": "“Methods of treating fragile X syndrome and related disorders” (Alcobra Ltd., priority 2013, dated 2017)", "key": {"[1]": {"tested_on": "Akt", "test": "Brain phosphorylation of Akt (western blot)", "format": "in vivo, mouse", "experimental": "(§1) In all cases, saline was used as a vehicle (control).\n(§2) The Ras-Mek-ERK and PI3K-Akt-mToR signaling pathways are involved in mediating activity dependent alterations in gene transcription underlying changes in synaptic plasticity (Klann and Dever, 2004). Phosphorylated ERK and Akt protein expression was measured by western blot analysis as previously described by Lopez Verrilli (Lopez Verrilli et al., 2009). The antibodies employed were anti-phosphospecific antibodies against Akt (1/1000) and kinase (ERK) 1/2 (1/2000) (Cell Signaling Technology, Danvers, Mass., USA). The antibody against phospho-ERK detects phosphorylation at phospho-ERK 1/2 (Thr202/Tyr204) whereas the antibody against phospho-Akt detects phosphorylation at phospho-Akt (Thr308). Total Akt and ERK 1/2 protein content and phosphorylated ERK and Akt were evaluated by blotting membranes with antiphospho-Akt (1/1000) and antiphospho-ERK antibodies (1/2000) (Cell Signaling Technology, Danvers, Mass., USA). Akt or ERK phosphorylation was normalized to protein content in the same sample and expressed as % of change with respect to basal conditions, considering basal levels as 100%. Protein loading was evaluated by stripping and re-blotting membranes with j-actin antibody (1/1000) (Sigma-Aldrich, St. Louis, Mo., USA). Phosphorylated ERK and Akt protein expression in blood lymphocytes was measured by flow cytometry. For lymphocyte biomarker determinations, a FACStar plus (Becton Dickinson) was used with the excitation laser tuned at 488 nm and green fluorescence from FITC (GST) was collected through a 515-545 nm bandpass filter. The mean FITC fluorescence Intensity was calculated in relation to the fluorescence of reference cells. The mean cellular fluorescence intensity (MFI) is directly proportional to the mean number of Ab molecules bound per cell."}, "[2]": {"tested_on": "Fmr1 knockout (KO) or Wild Type (WT) mice", "test": "T-maze rewarded alternation task", "format": "in vivo, mouse", "conditions": "2 months old, 150 mg/kg once daily 7 days, Study 1", "experimental": "(§3) Fmr1 knockout mice (KO2) mice (The Dutch-Belgium Fragile X Consortium, 1994), initially obtained from the Jackson Laboratory, and wild type (WT) littermates were generated on a C57BL/6J background and repeatedly backcrossed onto a C57BL/6J background for more than eight generations. The Fmr1 knockout mice were housed in groups of the same genotype in a temperature and humidity controlled room with a 12-h light-dark cycle (lights on from 7 am to 7 pm; testing was conducted during light phase). Room temperature and humidity were recorded continuously in the holding room while food and water were available ad libitum. Testing was conducted on healthy Fmr1 knockout mice and their wild type littermates (N=10 mice per treatment group) at 2 or 6 months of age during the behavioral experiments. Mice were housed in commercial plastic cages and experiments were conducted in line with the requirements of the UK Animals (Scientific Procedures) Act, 1986. All experiments were conducted with experimenters blind to genotype and drug treatment. Animals were allowed a minimum acclimatization period of one week prior to performing any experiment. No prophylactic or therapeutic treatment was administered during the acclimatization period.\nas §1\nAn elevated or enclosed apparatus in the form of a T (placed horizontally) was used. […]"}, "[3]": {"tested_on": "hippocampal slices from Fmr1 knockout or WT mice", "test": "De novo hippocampal protein synthesis in vitro (SUnSET)", "format": "cell-based, mouse", "conditions": "hippocampal slices from Fmr1 KO mice, 300 μM", "experimental": "as §1\nTransverse hippocampal slices (400 μm) were obtained from 6-week-old Fmr1 knockout and WT mice. A protein synthesis assay was performed as previously described using the nonradioactive fluorescence-activated cell sorting-based assay, surface sensing of translation (SUnSET) method, which allows the monitoring and quantification of global protein synthesis in individual mammalian cells and in heterogeneous cell populations. (Hoeffer, 2011)."}, "[4]": {"tested_on": "Fmr1 knockout (KO) or Wild Type (WT) mice", "test": "Y-maze spontaneous alternation", "format": "in vivo, mouse", "conditions": "2 months old, 150 mg/kg once daily 7 days, Study 1", "experimental": "as §3, §1\n(§4) Two tasks were implemented. The first was an unlearned assessment of spontaneous alternation between arm entries. […]"}, "[5]": {"tested_on": "ERK", "test": "Lymphocyte pERK (flow cytometry)", "format": "in vivo, mouse", "conditions": "Fmr1 KO mice, 2 months old", "experimental": "as §1, §2"}, "[6]": {"tested_on": "Fmr1 knockout (KO) or Wild Type (WT) mice", "test": "Y-maze reference memory task (rewarded)", "format": "in vivo, mouse", "conditions": "2 months old, 150 mg/kg once daily 7 days, Study 1", "experimental": "as §3, §1, §4"}, "[7]": {"conditions": "Fmr1 KO mice, 2 months old, 150 mg/kg ip 7 days, Study 2"}}, "note": "Entries after “also recorded” stand apart in the source; their conditions may differ.", "data": [{"compound": "Cc1ncc(CO)c(CO)c1O.O=C1CC[C@@H](C(=O)O)N1", "note": "[metadoxine, pyridoxol L,2-pyrrolidon-5 carboxylate]", "values": [{"measurement": "pAkt levels in hippocampus", "setting": "[1]; [7]", "value": "complete reversal of activation of Akt"}, {"measurement": "pAkt levels in pre-frontal cortex", "setting": "[1]; [7]", "value": "complete reversal of activation of Akt"}, {"measurement": "pAkt levels in striatum", "setting": "[1]; [7]", "value": "complete reversal of activation of Akt"}, {"measurement": "whole brain levels of pAkt", "setting": "[1]; Fmr1 KO mice, 6 months old, 150 mg/kg ip once daily 7 days", "value": "reversed this increase in brain pAkt"}, {"measurement": "pAkt levels in hippocampus, pre-frontal cortex and striatum", "setting": "[1]; WT mice, 2 months old, 150 mg/kg ip 7 days, Study 2", "value": "without effect on WT mice"}, {"measurement": "whole brain phosphorylated Akt", "setting": "[1]; WT mice, 2 months old, 150 mg/kg ip once daily 7 days, Study 1", "value": "no effect on WT mice"}, {"measurement": "whole brain total Akt levels", "setting": "[1]; any mice (KO or WT), 2 months old, 150 mg/kg ip once daily 7 days, Study 1", "value": "no effect"}, {"measurement": "T-maze rewarded alternation working memory (latency to reach the correct arm)", "setting": "[2]", "value": "reversal being partial; also recorded: significant improvement in memory"}, {"measurement": "basal de novo protein synthesis", "setting": "[3]", "value": "reduced protein synthesis rates in Fmr1 knockout mouse hippocampi. This effect was partial"}, {"measurement": "Y-maze spontaneous alternation", "setting": "[4]", "value": "partial reversal of the deficit"}, {"measurement": "lymphocyte pERK", "setting": "[5]; 150 mg/kg ip once daily 7 days", "value": "normalized overactivated ERK"}, {"measurement": "lymphocyte pERK", "setting": "[5]; 150 mg/kg oral once daily 7 days", "value": "normalized overactivated ERK"}, {"measurement": "lymphocyte pERK", "setting": "[5]; 300 mg/kg oral once daily 7 days", "value": "normalized overactivated ERK"}, {"measurement": "Y-maze rewarded reference memory learning (appropriate arm entries)", "setting": "[6]; Fmr1 KO mice", "value": "reduced this deficit"}, {"measurement": "Y-maze rewarded reference memory learning", "setting": "[6]; WT mice", "value": "No Effect on WT Mice"}]}]}
